Where two headings read alike, the source gives them in different places.
What was measured:
[1] = tested on: Key Broadleaf Weed and Crop Species; test: Post-emergent Test II herbicidal activity (Table 5); assay type: in vivo; settings: post-emergence, 336 h, post-emergent, 14 days after application; for pest or weed control at 70 g/ha: 70 g ai/ha; for pest or weed control at 140 g/ha: 140 g ai/ha
Outline: (§1)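 Spray rates: a highest rate plus ½×, ¼×, ⅛×, 1/16×, all delivered at 187 L/ha to plants at the first–second true leaf stage. Readout is a visual percent injury score at 14 d, where 100 means complete kill.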

[2] = tested on: Key Grass and Sedge Weeds as well as Grass Crops; test: Post-emergent Test II herbicidal activity (Table 6); assay type: in vivo; settings: post-emergence, 336 h; for pest or weed control at 70 g/ha: application rate 70 g ai/ha; for pest or weed control at 140 g/ha: application rate 140 g ai/ha
Outline: as §1

[3] = ABUTH: velvetleaf (Abutilon theophrasti), read-out: Visual Growth Reduction (%) 14 Days After Application ABUTH
[4] = AMARE: redroot pigweed (Amaranthus retroflexus), read-out: Visual Growth Reduction (%) 14 Days After Application AMARE
[5] = BRSNN: oilseed-rape, canola (Brassica napus), read-out: Visual Growth Reduction (%) 14 Days After Application BRSNN
[6] = CHEAL: lambsquarters (Chenopodium album), read-out: Visual Growth Reduction (%) 14 Days After Application CHEAL
[7] = EPHHL: wild poinsettia (Euphorbia heterophylla), read-out: Visual Growth Reduction (%) 14 Days After Application EPHHL
[8] = HELAN: sunflower (Helianthus annuus), read-out: Visual Growth Reduction (%) 14 Days After Application HELAN
[9] = VIOTR: wild pansy (Viola tricolor), read-out: Visual Growth Reduction (%) 14 Days After Application VIOTR
[10] = CYPES: yellow nutsedge (Cyperus esculentus), read-out: Visual Growth Reduction (%) 14 Days After Application, CYPES
[11] = DIGSA: crabgrass (Digitaria sanguinalis), read-out: Visual Growth Reduction (%) 14 Days After Application, DIGSA
[12] = ECHCG: barnyardgrass (Echinochloa crus-galli), read-out: Visual Growth Reduction (%) 14 Days After Application, ECHCG
[13] = ORYSA: rice (Oryza sativa), read-out: Visual Growth Reduction (%) 14 Days After Application, ORYSA
[14] = SETFA: giant foxtail (Setaria faberi), read-out: Visual Growth Reduction (%) 14 Days After Application, SETFA
[15] = SORVU: grain sorghum (Sorghum vulgare), read-out: Visual Growth Reduction (%) 14 Days After Application, SORVU
[16] = TRZSS (wheat, Triticum aestivum), read-out: Visual Growth Reduction (%) 14 Days After Application, TRZSS
[17] = ZEAMX: maize, corn (Zea mays), read-out: Visual Growth Reduction (%) 14 Days After Application, ZEAMX

melting point: 141.8 to 145 °C
Compound: COC(=O)c1nc(-c2cc(F)c(C(F)F)cc2F)cc(N)c1Cl [Compound 205]
pest or weed control at 70 g/ha [1, 3]: 95 to 100%
pest or weed control at 140 g/ha [1, 3]: 95 to 100%
pest or weed control at 70 g/ha [1, 4]: 95 to 100%
pest or weed control at 140 g/ha [1, 4]: 95 to 100%
pest or weed control at 70 g/ha [1, 5]: 60 to 74%
pest or weed control at 140 g/ha [1, 5]: 85 to 94%
pest or weed control at 70 g/ha [1, 6]: 95 to 100%
pest or weed control at 140 g/ha [1, 6]: 95 to 100%
pest or weed control at 70 g/ha [1, 7]: 95 to 100%
pest or weed control at 140 g/ha [1, 7]: 95 to 100%
pest or weed control at 70 g/ha [1, 8]: 85 to 94%
pest or weed control at 140 g/ha [1, 8]: 95 to 100%
pest or weed control at 70 g/ha [1, 9]: 45 to 59%
pest or weed control at 140 g/ha [1, 9]: 60 to 74%
pest or weed control at 70 g/ha [2, 10]: 85 to 94%
pest or weed control at 140 g/ha [2, 10]: 95 to 100%
pest or weed control at 70 g/ha [2, 11]: 30 to 44%
pest or weed control at 140 g/ha [2, 11]: 45 to 59%
pest or weed control at 70 g/ha [2, 12]: 85 to 94%
pest or weed control at 140 g/ha [2, 12]: 85 to 94%
pest or weed control at 70 g/ha [2, 13]: 0 to 29%
pest or weed control at 140 g/ha [2, 13]: 0 to 29%
pest or weed control at 70 g/ha [2, 14]: 45 to 59%
pest or weed control at 140 g/ha [2, 14]: 75 to 84%
pest or weed control at 70 g/ha [2, 15]: 60 to 74%
pest or weed control at 140 g/ha [2, 15]: 75 to 84%
pest or weed control at 70 g/ha [2, 16]: 0 to 29%
pest or weed control at 140 g/ha [2, 16]: 30 to 44%
pest or weed control at 70 g/ha [2, 17]: 30 to 44%
pest or weed control at 140 g/ha [2, 17]: 60 to 74%

— patent US9113629B2, “4-amino-6-(4-substituted-phenyl)-picolinates and 6-amino-2-(4-substituted-phenyl)-pyrimidine-4-carboxylates and their use as herbicides” (DOW AGROSCIENCES LLC, priority 2013, dated 2015)
